Measurements reported in the NIST ThermoML archive (doi:10.1021/acs.jced.6b00279).
± gives the expanded uncertainty stated by the source.

Conditions: Crystal; visual observation

CCCC[n+]1ccccc1.[Br-] [1-butylpyridinium bromide]
Normal melting temperature: 105.00 ± 2 °C
